# What was measured:
# Assay type in all cases: functional
# [1] = system: Mycobacterium tuberculosis; assay: Antitubercular activity against isoniazid-resistant Mycobacterium tuberculosis H37Rv isolate 1 by two-fold serial dilution method
# [2] = system: Mycobacterium tuberculosis; assay: Antitubercular activity against rifampicin-resistant Mycobacterium tuberculosis H37Rv isolate 1 by two-fold serial dilution method
# [3] = system: Mycobacterium tuberculosis; assay: Antitubercular activity against fluoroquinolone-resistant Mycobacterium tuberculosis H37Rv isolate 1 by two-fold serial dilution method
# [4] = system: Mycobacterium tuberculosis; assay: Antitubercular activity against isoniazid-resistant Mycobacterium tuberculosis H37Rv isolate 2 by two-fold serial dilution method
# [5] = system: Mycobacterium tuberculosis; assay: Antitubercular activity against rifampicin-resistant Mycobacterium tuberculosis H37Rv isolate 2 by two-fold serial dilution method
SMILES,MIC [1],MIC [2],MIC [3],MIC [4],MIC [5]
CNC[C@@H](Cc1ccccc1)N1CCN(CCC23CC4CC(CC(C4)C2)C3)[C@H](C(C)C)C1,1.8 µM,14 µM,14 µM,,
CNC[C@@H](Cc1ccccc1)N1CCN(CCC(c2ccccc2)c2ccccc2)CC1,74 µM,172 µM,70 µM,27 µM,71 µM
CNC[C@@H](Cc1ccccc1)N1CCN(CCC23CC4CC(CC(C4)C2)C3)CC1,57 µM,39 µM,38 µM,68 µM,83 µM
CCC(C)[C@@H]1CN([C@@H](CNC)Cc2ccccc2)CCN1CCC12CC3CC(CC(C3)C1)C2 (stereo partly drawn),38 µM,37 µM,28 µM,41 µM,48 µM

# — ChEMBL document CHEMBL3792319, “Synthesis and antitubercular activity of 1,2,4-trisubstitued piperazines” (Bioorg Med Chem Lett, 2016)
